Measurements as given in paper PMC6780696, “New Peptides from The Marine-Derived Fungi Aspergillus allahabadii and Aspergillus ochraceopetaliformis” (Marine Drugs, 2019).
Positions of bridges follow the written chain, without caps; N, C: chain ends. Non-standard residues stand in square brackets, D forms with d. Residues, ends and D or L forms follow the SMILES beside them. NMeF = CN[C@@H](Cc1ccccc1)C(=O)O

Tests used:
[1] = target: T1, recombinant ICL from C. albicans (Candida albicans, UniProt Q9P8Q7); experiment: ICL inhibition assay; format: biochemical; conditions: 37 °C, 30 min
T1 construct: made in house
Description: The recombinant ICL from C. albicans was prepared and the inhibitory activity of the test compounds against ICL was determined by previously documented procedures. […] The increase in intensity of absorbance resulting from the formation of glyoxylate phenylhydrazone was observed using an UVmini-1240 spectrophotometer (SHIMADZU, Tokyo, Japan) at a wavelength of 324 nm. A known ICL inhibitor, 3-nitropropionic acid, was used as a reference control.

[2] = target: T2, S. aureus-derived recombinant SrtA (Staphylococcus aureus, UniProt Q2FV99); experiment: biochemical
T2 construct: made in house; host or cells: E. coli

[3] = target: isocitrate lyase (ICL) derived from C. albicans; parameters: method as in PMID 31167388; conditions: previously reported; cited from earlier work
Bacillus cereus = test system: Bacillus cereus; parameters: method as in PMID 25001296; conditions: cited from earlier work
[4] = test system: Staphylococcus epidermidis; parameters: method as in PMID 25001296; conditions: cited from earlier work

T2 sequence (Q2FV99 whole entry): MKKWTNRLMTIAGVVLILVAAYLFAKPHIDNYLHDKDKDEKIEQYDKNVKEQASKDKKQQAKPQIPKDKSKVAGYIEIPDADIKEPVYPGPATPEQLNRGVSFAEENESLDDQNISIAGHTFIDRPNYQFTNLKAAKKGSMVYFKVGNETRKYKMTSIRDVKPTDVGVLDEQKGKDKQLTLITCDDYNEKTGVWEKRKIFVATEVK
T1 sequence (Q9P8Q7 whole entry): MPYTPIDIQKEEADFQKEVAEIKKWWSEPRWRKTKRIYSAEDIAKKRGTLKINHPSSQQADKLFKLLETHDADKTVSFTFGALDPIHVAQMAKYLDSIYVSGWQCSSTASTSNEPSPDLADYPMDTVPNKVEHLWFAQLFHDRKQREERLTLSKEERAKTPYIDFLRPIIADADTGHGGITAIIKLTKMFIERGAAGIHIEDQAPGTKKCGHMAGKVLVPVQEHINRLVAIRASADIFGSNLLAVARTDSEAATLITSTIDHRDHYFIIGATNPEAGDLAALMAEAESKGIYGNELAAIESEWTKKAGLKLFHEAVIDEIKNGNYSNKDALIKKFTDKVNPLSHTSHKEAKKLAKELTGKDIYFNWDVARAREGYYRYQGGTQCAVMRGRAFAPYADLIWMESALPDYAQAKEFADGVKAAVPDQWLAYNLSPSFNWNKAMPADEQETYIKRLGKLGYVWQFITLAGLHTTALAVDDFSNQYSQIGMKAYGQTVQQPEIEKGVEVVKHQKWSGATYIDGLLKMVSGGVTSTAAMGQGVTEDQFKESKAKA

With `O=C(O)CC[N+](=O)[O-]` [3-Nitropropionic acid] the IC50 [1] was 18.5 µM.

Compound `COc1ccc2cc3[n+](cc2c1OC)CCc1cc2c(cc1-3)OCO2` [Berberine chloride] has an IC50 [2] of 104 µM.

In the case of `CC(C)C[C@@H]1NC(=O)[C@@H]2CCCN2C(=O)[C@H](Cc2ccc(O)cc2)NC(=O)[C@H](Cc2ccccc2)N(C)C(=O)[C@H](C)NC1=O` [Compound 1, JG002CPA] (cyclo(A[NMeF]YPL)), the IC50 [2] is reported as 70 µM.

In the case of `CC(C)[C@@H]1NC(=O)[C@@H]2CCCN2C(=O)[C@H](Cc2ccc(O)cc2)NC(=O)[C@H](Cc2ccccc2)N(C)C(=O)[C@H](C)NC1=O` [Compound 2, JG002CPB] (cyclo(A[NMeF]YPV)), the IC50 [2] is reported as 53.1 µM and the IC50 [1] is reported as 117 µM.

`CC(=O)N[C@@H]1C(=O)N[C@H](C(C)C)C(=O)N2CCC[C@H]2C(=O)N[C@@H](Cc2ccc(O)cc2)C(=O)N(C)[C@@H](Cc2ccccc2)C(=O)N[C@@H](C)C(=O)O[C@@H]1C` [Compound 3, FJ120DPA] (Ac-T[dV]PY[NMeF]A; ester 1-C) gave an IC50 [2] of 132 µM.

`CC(=O)N[C@H](C(=O)N[C@@H](C(=O)N1CCC[C@H]1C(=O)N[C@@H](Cc1ccc(O)cc1)C(=O)N(C)[C@@H](Cc1ccccc1)C(=O)N[C@@H](C)C(=O)O)C(C)C)[C@@H](C)O` [Compound 4, FJ120DPB] (Ac-T[dV]PY[NMeF]A-OH) showed an IC50 [2] of 77 µM.

In the case of `CC(C)[C@@H]1NC(=O)[C@H](Cc2ccccc2)NC1=O` [cyclo(L-Phe-L-Val)], the IC50 [3] is given as 110 µM.

For asperpeptide A, the MIC (Bacillus cereus) is given as 12.5 µM and the MIC [4] is given as 12.5 µM.
